Data from the supplement of paper PMC10307832.

Assays:
Test in all cases: relative viability (nuclei count vs DMSO), 5 days (fraction); higher = more cells survive
NCI-H2023 = test system: NCI-H2023
Summary of the method: (§1)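 Five library-drug doses in √10 steps were combined with a fixed anchor-drug dose, or a single drug was given alone, by pin tool to lung cancer cell lines in 1536-well plates the day after seeding. Nuclei were stained and counted after 5 days. Relative viability is the nuclei count in treated wells over that in vehicle wells, taken as the median of duplicate plates.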

SW 1573 = test system: SW 1573
Summary of the method: as §1

LC-2-ad = test system: LC-2-ad
Summary of the method: as §1

ABC-1 = test system: ABC-1
Summary of the method: as §1

NCI-H2347 = test system: NCI-H2347
Summary of the method: as §1

NCI-H522 = test system: NCI-H522
Summary of the method: as §1

NCI-H647 = test system: NCI-H647
Summary of the method: as §1

A-427 = test system: A-427
Summary of the method: as §1

UMC-11 = test system: UMC-11
Summary of the method: as §1

NCI-H1944 = test system: NCI-H1944
Summary of the method: as §1

NCI-H838 = test system: NCI-H838
Summary of the method: as §1

NCI-H1793 = test system: NCI-H1793
Summary of the method: as §1

NCI-H1915 = test system: NCI-H1915
Summary of the method: as §1

NCI-H358 = test system: NCI-H358
Summary of the method: as §1

NCI-H2342 = test system: NCI-H2342
Summary of the method: as §1

NCI-H441 = test system: NCI-H441
Summary of the method: as §1

NCI-H2009 = test system: NCI-H2009
Summary of the method: as §1

NCI-H322M = test system: NCI-H322M
Summary of the method: as §1

RERF-LC-KJ = test system: RERF-LC-KJ
Summary of the method: as §1

HCC-15 = test system: HCC-15
Summary of the method: as §1

EPLC-272H = test system: EPLC-272H
Summary of the method: as §1

LK-2 = test system: LK-2
Summary of the method: as §1

NCI-H1734 = test system: NCI-H1734
Summary of the method: as §1

Molecule `CCNC(=O)c1noc(-c2cc(C(C)C)c(O)cc2O)c1-c1ccc(CN2CCOCC2)cc1` [Luminespib] + O=C(CCCCCCC(=O)Nc1ccccc1)NO [Vorinostat] (partner 1 µM) has a relative viability (NCI-H2023; first compound 0.002 µM) of 0.7, a relative viability (NCI-H2023; first compound 0.006325 µM) of 0.527 and a relative viability (NCI-H2023; first compound 0.02 µM) of 0.236. For the same molecule, the relative viability (NCI-H2023; first compound 0.06325 µM) was 0.0453, the relative viability (NCI-H2023; first compound 0.2 µM) was 0.0503 and the relative viability (SW 1573; first compound 0.002 µM) was 0.742. It also gave a relative viability (SW 1573; first compound 0.006325 µM) of 0.874, a relative viability (SW 1573; first compound 0.02 µM) of 0.212 and a relative viability (SW 1573; first compound 0.06325 µM) of 0.0903. It also gave a relative viability (SW 1573; first compound 0.2 µM) of 0.0874, a relative viability (LC-2-ad; first compound 0.002 µM) of 0.647 and a relative viability (LC-2-ad; first compound 0.006325 µM) of 0.727. For the same molecule, the relative viability (LC-2-ad; first compound 0.02 µM) was 0.554, the relative viability (LC-2-ad; first compound 0.06325 µM) was 0.465 and the relative viability (LC-2-ad; first compound 0.2 µM) was 0.179. The relative viability (ABC-1; first compound 0.002 µM) was 1.34, the relative viability (ABC-1; first compound 0.006325 µM) was 0.291 and the relative viability (ABC-1; first compound 0.02 µM) was 1.06. The relative viability (ABC-1; first compound 0.06325 µM) was 0.269, the relative viability (ABC-1; first compound 0.2 µM) was 0.325 and the relative viability (NCI-H2347; first compound 0.002 µM) was 0.54. For the same molecule, the relative viability (NCI-H2347; first compound 0.006325 µM) was 0.413, the relative viability (NCI-H2347; first compound 0.02 µM) was 0.589 and the relative viability (NCI-H2347; first compound 0.06325 µM) was 0.38. It also gave a relative viability (NCI-H2347; first compound 0.2 µM) of 0.263, a relative viability (NCI-H522; first compound 0.002 µM) of 0.81 and a relative viability (NCI-H522; first compound 0.006325 µM) of 0.904. It also gave a relative viability (NCI-H522; first compound 0.02 µM) of 0.772, a relative viability (NCI-H522; first compound 0.06325 µM) of 0.607 and a relative viability (NCI-H522; first compound 0.2 µM) of 0.354. The relative viability (NCI-H647; first compound 0.002 µM) was 0.584, the relative viability (NCI-H647; first compound 0.006325 µM) was 0.381 and the relative viability (NCI-H647; first compound 0.02 µM) was 0.646. For the same molecule, the relative viability (NCI-H647; first compound 0.06325 µM) was 0.11, the relative viability (NCI-H647; first compound 0.2 µM) was 0.0869 and the relative viability (A-427; first compound 0.002 µM) was 0.855. It also gave a relative viability (A-427; first compound 0.006325 µM) of 0.319, a relative viability (A-427; first compound 0.02 µM) of 0.807 and a relative viability (A-427; first compound 0.06325 µM) of 0.327. For the same molecule, the relative viability (A-427; first compound 0.2 µM) was 0.247, the relative viability (UMC-11; first compound 0.002 µM) was 0.393 and the relative viability (UMC-11; first compound 0.006325 µM) was 0.402. For the same molecule, the relative viability (UMC-11; first compound 0.02 µM) was 0.345, the relative viability (UMC-11; first compound 0.06325 µM) was 0.302 and the relative viability (UMC-11; first compound 0.2 µM) was 0.152. For the same molecule, the relative viability (NCI-H1944; first compound 0.002 µM) was 0.549, the relative viability (NCI-H1944; first compound 0.006325 µM) was 0.571 and the relative viability (NCI-H1944; first compound 0.02 µM) was 0.354. For the same molecule, the relative viability (NCI-H1944; first compound 0.06325 µM) was 0.404, the relative viability (NCI-H1944; first compound 0.2 µM) was 0.153 and the relative viability (NCI-H838; first compound 0.002 µM) was 0.778. It also gave a relative viability (NCI-H838; first compound 0.006325 µM) of 0.655, a relative viability (NCI-H838; first compound 0.02 µM) of 0.785 and a relative viability (NCI-H838; first compound 0.06325 µM) of 0.151. It also gave a relative viability (NCI-H838; first compound 0.2 µM) of 0.153, a relative viability (NCI-H1793; first compound 0.002 µM) of 0.631 and a relative viability (NCI-H1793; first compound 0.006325 µM) of 0.556. For the same molecule, the relative viability (NCI-H1793; first compound 0.02 µM) was 0.271, the relative viability (NCI-H1793; first compound 0.06325 µM) was 0.107 and the relative viability (NCI-H1793; first compound 0.2 µM) was 0.122. For the same molecule, the relative viability (NCI-H1915; first compound 0.002 µM) was 0.556, the relative viability (NCI-H1915; first compound 0.006325 µM) was 0.506 and the relative viability (NCI-H1915; first compound 0.02 µM) was 0.415. For the same molecule, the relative viability (NCI-H1915; first compound 0.06325 µM) was 0.477, the relative viability (NCI-H1915; first compound 0.2 µM) was 0.0602 and the relative viability (NCI-H358; first compound 0.002 µM) was 0.662. It also gave a relative viability (NCI-H358; first compound 0.006325 µM) of 0.66, a relative viability (NCI-H358; first compound 0.02 µM) of 0.669 and a relative viability (NCI-H358; first compound 0.06325 µM) of 0.0646. It also gave a relative viability (NCI-H358; first compound 0.2 µM) of 0.0598, a relative viability (NCI-H2342; first compound 0.002 µM) of 0.766 and a relative viability (NCI-H2342; first compound 0.006325 µM) of 0.809. The relative viability (NCI-H2342; first compound 0.02 µM) was 0.467, the relative viability (NCI-H2342; first compound 0.06325 µM) was 0.679 and the relative viability (NCI-H2342; first compound 0.2 µM) was 0.416. The relative viability (NCI-H441; first compound 0.002 µM) was 0.784, the relative viability (NCI-H441; first compound 0.006325 µM) was 0.823 and the relative viability (NCI-H441; first compound 0.02 µM) was 0.785. It also gave a relative viability (NCI-H441; first compound 0.06325 µM) of 0.233, a relative viability (NCI-H441; first compound 0.2 µM) of 0.11 and a relative viability (NCI-H2009; first compound 0.002 µM) of 0.765. For the same molecule, the relative viability (NCI-H2009; first compound 0.006325 µM) was 0.594, the relative viability (NCI-H2009; first compound 0.02 µM) was 0.705 and the relative viability (NCI-H2009; first compound 0.06325 µM) was 0.429. For the same molecule, the relative viability (NCI-H2009; first compound 0.2 µM) was 0.113, the relative viability (NCI-H322M; first compound 0.002 µM) was 0.83 and the relative viability (NCI-H322M; first compound 0.006325 µM) was 0.407. For the same molecule, the relative viability (NCI-H322M; first compound 0.02 µM) was 0.736, the relative viability (NCI-H322M; first compound 0.06325 µM) was 0.486 and the relative viability (NCI-H322M; first compound 0.2 µM) was 0.417. For the same molecule, the relative viability (RERF-LC-KJ; first compound 0.002 µM) was 0.624, the relative viability (RERF-LC-KJ; first compound 0.006325 µM) was 0.707 and the relative viability (RERF-LC-KJ; first compound 0.02 µM) was 0.473. For the same molecule, the relative viability (RERF-LC-KJ; first compound 0.06325 µM) was 0.467, the relative viability (RERF-LC-KJ; first compound 0.2 µM) was 0.216 and the relative viability (HCC-15; first compound 0.002 µM) was 0.792. For the same molecule, the relative viability (HCC-15; first compound 0.006325 µM) was 0.805, the relative viability (HCC-15; first compound 0.02 µM) was 0.942 and the relative viability (HCC-15; first compound 0.06325 µM) was 0.583. The relative viability (HCC-15; first compound 0.2 µM) was 0.173, the relative viability (EPLC-272H; first compound 0.002 µM) was 0.402 and the relative viability (EPLC-272H; first compound 0.006325 µM) was 0.381. For the same molecule, the relative viability (EPLC-272H; first compound 0.02 µM) was 0.505, the relative viability (EPLC-272H; first compound 0.06325 µM) was 0.0961 and the relative viability (EPLC-272H; first compound 0.2 µM) was 0.171. It also gave a relative viability (LK-2; first compound 0.002 µM) of 0.305, a relative viability (LK-2; first compound 0.006325 µM) of 0.374 and a relative viability (LK-2; first compound 0.02 µM) of 0.201. The relative viability (LK-2; first compound 0.06325 µM) was 0.146, the relative viability (LK-2; first compound 0.2 µM) was 0.163 and the relative viability (NCI-H1734; first compound 0.002 µM) was 0.719. It also gave a relative viability (NCI-H1734; first compound 0.006325 µM) of 0.719, a relative viability (NCI-H1734; first compound 0.02 µM) of 0.436 and a relative viability (NCI-H1734; first compound 0.06325 µM) of 0.132. The relative viability (NCI-H1734; first compound 0.2 µM) was 0.123.
